In patent US20240083857A1, “2-Methyl-Quinazolines” (Bayer Pharma Aktiengesellschaft, priority 2017, published 2024):

Key:
[1] = target: K-Ras^G12C : hSOS1 interaction (Homo sapiens, UniProt Q07889); assay: Biochemical assay 1: K-Ras^G12C interaction assay with hSOS1 (HTRF); type: binding; details: read-out: Assay 1 (KRAS-SOS Interaction) activity expressed as IC50
[2] = target: human SOS1 (nucleotide exchange of K-Ras^G12C) (Homo sapiens, UniProt Q07889); assay: Biochemical assay 2: K-Ras^G12C activation assay by hSOS1 at high GTP concentration (HTRF); details: high GTP; for IC50: read-out: Assay 2 (KRAS-Activation by SOS high GTP) activity expressed as IC50

| Compound | IC50 [1] [µM] | IC50 [2] [µM] | inhibition at 20 µM ([2]; read-out: Assay 2 (KRAS-Activation by SOS high GTP) activity expressed as % inhibition at 20 μM, at 20 μM) [%] |
| --- | --- | --- | --- |
| COc1cc2nc(C)nc(N[C@H](C)c3cccc(C4=CCN(C)CC4)c3)c2cc1OC [Example 202, 6,7-dimethoxy-2-methyl-N-{(1R)-1-[3-(1-methyl-1,2,3,6-tetrahydropyridin-4-yl)phenyl]ethyl}quinazolin-4-amine] | 1.42 | 0.979 |  |
| C=C(C)c1ccc([C@@H](C)Nc2nc(C)nc3cc(OC)c(OC)cc23)cc1 [Example 203, 6,7-dimethoxy-2-methyl-N-{(1R)-1-[4-(prop-1-en-2-yl)phenyl]ethyl}quinazolin-4-amine] | 1.37 | 1.38 |  |
| COc1cc2nc(C)nc(N[C@H](C)c3cccc(C4CC4)c3)c2cc1OC [Example 204, N-[(1R)-1-(3-cyclopropylphenyl)ethyl]-6,7-dimethoxy-2-methylquinazolin-4-amine] | 0.229 | 0.265 |  |
| COc1cc2nc(C)nc(NC(C)c3cccc4sccc34)c2cc1OC (stereo not shown) [Example 205, N-[1-(1-benzothiophen-4-yl)ethyl]-6,7-dimethoxy-2-methylquinazolin-4-amine] | 0.0738 | 0.0872 |  |
| COc1cc2nc(C)nc(N[C@H](C)c3ccccc3)c2cc1OC [Example 206, 6,7-dimethoxy-2-methyl-N-[(1R)-1-phenylethyl]quinazolin-4-amine] | 0.481 | 1 |  |
| COc1cc2nc(C)nc(NC(C)c3cccs3)c2cc1OC (stereo not shown) [Example 207, 6,7-dimethoxy-2-methyl-N-[1-(thiophen-2-yl)ethyl]quinazolin-4-amine] | 2.73 | 2.27 |  |
| COc1cc2nc(C)nc(NC(C)c3ccc(-c4ccccc4CN4CCC(O)C4)s3)c2cc1OC (stereo not shown) [Example 210, 1-[2-(5-{1-[(6,7-dimethoxy-2-methylquinazolin-4-yl)amino]ethyl}thiophen-2-yl)benzyl]pyrrolidin-3-ol] | 0.0385 | 0.109 |  |
| COc1cc2nc(C)nc(NC(C)c3ccc(-c4ccccc4CN4CC[C@H](F)C4)s3)c2cc1OC (stereo partly drawn) [Example 211, N-{1-[5-(2-{[(3S)-3-fluoropyrrolidin-1-yl]methyl}phenyl)thiophen-2-yl]ethyl}-6,7-dimethoxy-2-methylquinazolin-4-amine] | 0.133 | 0.292 |  |
| COc1cc2nc(C)nc(NC(C)c3ccc(-c4ccccc4)o3)c2cc1OC (stereo not shown) [Example 213, 6,7-dimethoxy-2-methyl-N-[1-(5-phenylfuran-2-yl)ethyl]quinazolin-4-amine] | 6.76 | 6.31 |  |
| COc1cc2nc(C)nc(NC(C)c3cc(Br)cc4c3OCC4)c2cc1OC (stereo not shown) [Example 214, N-[1-(5-bromo-2,3-dihydro-1-benzofuran-7-yl)ethyl]-6,7-dimethoxy-2-methylquinazolin-4-amine] | 3.33 | 3.96 |  |
| COc1cc2nc(C)nc(NC(C)c3cccc(Oc4ccccc4)c3)c2cc1OC (stereo not shown) [Example 215, 6,7-dimethoxy-2-methyl-N-[1-(3-phenoxyphenyl)ethyl]quinazolin-4-amine] | 0.906 | 1.16 |  |
| COc1cc2nc(C)nc(NC(C)c3cccc(-c4nn[nH]n4)c3)c2cc1OC (stereo not shown) [Example 216, 6,7-dimethoxy-2-methyl-N-{1-[3-(2H-tetrazol-5-yl)phenyl]ethyl}quinazolin-4-amine] | 6.58 | 17 |  |
| COc1cc2nc(C)nc(NC(C)c3cccc4cccnc34)c2cc1OC (stereo not shown) [Example 217, 6,7-dimethoxy-2-methyl-N-[1-(quinolin-8-yl)ethyl]quinazolin-4-amine] | 8.8 |  | 50 |
| COc1cc2nc(C)nc(NC(C)c3ccc(-c4cnn(CCO)c4)s3)c2cc1OC (stereo not shown) [Example 218, 2-[4-(5-{1-[(6,7-dimethoxy-2-methylquinazolin-4-yl)amino]ethyl}thiophen-2-yl)-1H-pyrazol-1-yl]ethanol] | 1.96 | 1.37 |  |
| COc1cc2nc(C)nc(NC(C)c3ccc(-c4cnc5n4CCC5)s3)c2cc1OC (stereo not shown) [Example 219, N-{1-[5-(6,7-dihydro-5H-pyrrolo[1,2-a]imidazol-3-yl)thiophen-2-yl]ethyl}-6,7-dimethoxy-2-methylquinazolin-4-amine] | 0.415 | 0.57 |  |
| COc1cc2nc(C)nc(NC(C)c3ccc(-c4cnn(CCN5CCCC5)c4)s3)c2cc1OC (stereo not shown) [Example 220, 6,7-dimethoxy-2-methyl-N-[1-(5-{1-[2-(pyrrolidin-1-yl)ethyl]-1H-pyrazol-4-yl}thiophen-2-yl)ethyl]quinazolin-4-amine] | 0.379 | 0.381 |  |
| COc1cc2nc(C)nc(NC(C)c3ccc(-c4cnn(C5CCCC5)c4)s3)c2cc1OC (stereo not shown) [Example 221, N-{1-[5-(1-cyclopentyl-1H-pyrazol-4-yl)thiophen-2-yl]ethyl}-6,7-dimethoxy-2-methylquinazolin-4-amine] | 3.06 | 4.65 |  |
| COc1cc2nc(C)nc(NC(C)c3ccc(-c4cc[nH]n4)s3)c2cc1OC (stereo not shown) [Example 222, 6,7-dimethoxy-2-methyl-N-{1-[5-(1H-pyrazol-3-yl)thiophen-2-yl]ethyl}quinazolin-4-amine] | 3.88 | 4.44 |  |

| Compound | IC50 [1] [µM] | IC50 [2] [µM] | inhibition at 20 µM ([2]; read-out: Assay 2 (KRAS-Activation by SOS high GTP) activity expressed as % inhibition at 20 μM, at 20 μM) [%] |
| --- | --- | --- | --- |
| COc1cc2nc(C)nc(NC(C)c3ccc(-c4ccccc4CN4CCC(F)(F)C4)s3)c2cc1OC (stereo not shown) [Example 223, N-[1-(5-{2-[(3,3-difluoropyrrolidin-1-yl)methyl]phenyl}thiophen-2-yl)ethyl]-6,7-dimethoxy-2-methylquinazolin-4-amine] | 2.11 | 5.6 |  |
| COc1cc2nc(C)nc(NC(C)c3ccc4nsnc4c3)c2cc1OC (stereo not shown) [Example 229, N-[1-(2,1,3-benzothiadiazol-5-yl)ethyl]-6,7-dimethoxy-2-methylquinazolin-4-amine] | 6.95 | 7.82 |  |
| CCOc1ccccc1-c1ccc(C(C)Nc2nc(C)nc3cc(OC)c(OC)cc23)s1 (stereo not shown) [Example 232, N-{1-[5-(2-ethoxyphenyl)thiophen-2-yl]ethyl}-6,7-dimethoxy-2-methylquinazolin-4-amine] | 9.01 | 9.29 |  |
| COc1cc2nc(C)nc(NC(C)c3ccc(-c4ccc(F)c5ccccc45)s3)c2cc1OC (stereo not shown) [Example 233, N-{1-[5-(4-fluoronaphthalen-1-yl)thiophen-2-yl]ethyl}-6,7-dimethoxy-2-methylquinazolin-4-amine] | 10.4 | 2 |  |
| COc1cc2nc(C)nc(NC(C)c3ccc(-c4ccc(F)cc4CN)s3)c2cc1OC (stereo not shown) [Example 234, N-[1-{5-[2-(aminomethyl)-4-fluorophenyl]thiophen-2-yl}ethyl]-6,7-dimethoxy-2-methylquinazolin-4-amine] | 0.0756 | 0.0654 |  |
| COc1cc2nc(C)nc(NC(C)c3ccc(C4=CCOCC4)s3)c2cc1OC (stereo not shown) [Example 235, N-{1-[5-(3,6-dihydro-2H-pyran-4-yl)thiophen-2-yl]ethyl}-6,7-dimethoxy-2-methylquinazolin-4-amine] | 5.47 | 4.72 |  |
| COc1cc2nc(C)nc(NC(C)c3ccc(-c4ccccc4CN4CCC(N(C)C)C4)s3)c2cc1OC (stereo not shown) [Example 238, N-{1-[5-(2-{[3-(dimethylamino)pyrrolidin-1-yl]methyl}phenyl)thiophen-2-yl]ethyl}-6,7-dimethoxy-2-methylquinazolin-4-amine] | 0.0816 | 0.217 |  |
| COc1cc2nc(C)nc(NC(C)c3csc(Br)c3)c2cc1OC (stereo not shown) [Example 239, N-[1-(5-bromothiophen-3-yl)ethyl]-6,7-dimethoxy-2-methylquinazolin-4-amine] | 7.07 | 3.83 |  |
| COc1cc2nc(C)nc(NC(C)c3ccc(-c4ccccc4C(N)=O)s3)c2cc1OC (stereo not shown) [Example 240, 2-(5-{1-[(6,7-dimethoxy-2-methylquinazolin-4-yl)amino]ethyl}thiophen-2-yl)benzamide] | 3.21 | 3.19 |  |
| COc1cc2nc(C)nc(NC(C)c3ccc(-c4cccc(C(N)=O)c4)s3)c2cc1OC (stereo not shown) [Example 241, 3-(5-{1-[(6,7-dimethoxy-2-methylquinazolin-4-yl)amino]ethyl}thiophen-2-yl)benzamide] | 1.12 | 1.44 |  |
| COc1cc2nc(C)nc(NC(C)c3ccc(-c4ccc(C(N)=O)cc4)s3)c2cc1OC (stereo not shown) [Example 242, 4-(5-{1-[(6,7-dimethoxy-2-methylquinazolin-4-yl)amino]ethyl}thiophen-2-yl)benzamide] | 1.83 | 1.5 |  |
| COc1cc2nc(C)nc(NC(C)c3ccc(-c4ccccc4N)s3)c2cc1OC (stereo not shown) [Example 243, N-{1-[5-(2-aminophenyl)thiophen-2-yl]ethyl}-6,7-dimethoxy-2-methylquinazolin-4-amine] | 0.252 | 0.325 |  |
| COc1cc2nc(C)nc(NC(C)c3ccc(-c4ccccc4CO)s3)c2cc1OC (stereo not shown) [Example 244, [2-(5-{1-[(6,7-dimethoxy-2-methylquinazolin-4-yl)amino]ethyl}thiophen-2-yl)phenyl]methanol] | 0.282 | 0.401 |  |
| COc1cc2nc(C)nc(NC(C)c3ccc(-c4ccccc4C#N)s3)c2cc1OC (stereo not shown) [Example 245, 2-(5-{1-[(6,7-dimethoxy-2-methylquinazolin-4-yl)amino]ethyl}thiophen-2-yl)benzonitrile] | 0.592 | 0.9 |  |
| COc1cc2nc(C)nc(NC(C)c3ccc(-c4cccc5cn[nH]c45)s3)c2cc1OC (stereo not shown) [Example 246, N-{1-[5-(1H-indazol-7-yl)thiophen-2-yl]ethyl}-6,7-dimethoxy-2-methylquinazolin-4-amine] | 7.59 | 4.21 |  |
| COc1cc2nc(C)nc(NC(C)c3ccc(-c4cccc5[nH]ncc45)s3)c2cc1OC (stereo not shown) [Example 247, N-{1-[5-(1H-indazol-4-yl)thiophen-2-yl]ethyl}-6,7-dimethoxy-2-methylquinazolin-4-amine] | 0.591 | 0.867 |  |
| C=Cc1ccccc1-c1ccc(C(C)Nc2nc(C)nc3cc(OC)c(OC)cc23)s1 (stereo not shown) [Example 248, N-{1-[5-(2-ethenylphenyl)thiophen-2-yl]ethyl}-6,7-dimethoxy-2-methylquinazolin-4-amine] | 1.49 | 8.08 |  |
